Data as given in patent US20140212949A1, “METHOD FOR PREPARING MICROVESICULAR ADAM15” (INDUSTRY-ACADEMIC COOPERATION FOUNDATION, YONSEI UNIVERSITY, priority 2011, published 2014).

Columns and labels:
Assay type in all cases: cell-based, human
[1] = system: MDAH-2774 cells; assay: Effect of PKC inhibitor on secretion of exosome-associated ADAM15; settings: PMA and indicated concentrations of calphostin C for 24 h
[2] = system: MCF-7 cells; assay: ADAM15 release from MCF-7 cells into conditioned medium and levels in cell lysates (western blotting)
Method: FIG. 1 verifies that ADAM15 is released into the extracellular space. […] MCF-7 cells were incubated with 5 ng/Ml PMA in serum-free RPMI 1640 medium. P indicates pro-ADAM15 and M indicates mature ADAM15. In the results of the lower panel, data are represented as the mean±standard deviation of four experiments. *P<0.01; Student's t test. […] Cells were treated as described in the drawing. Arrows indicate pro-ADAM15 (P) and mature ADAM15 (M), respectively.
Cells were lysed in buffer containing 50 Mm Tris-HCl, pH 7.5, 5 mM EDTA, 150 mM NaCl, 1% Triton X-100, and protease inhibitor cocktail (Roche Applied Science, Indianapolis, Ind.) for 1 h at 4° C. and then centrifuged. The soluble portion of the lysate was used for western blotting, which was performed by separation of reduced or non-reduced samples on SDS-PAGE, followed by electroblotting to nitrocellulose membranes and detection of bound antibody by enhanced chemiluminescence (Amersham Biosciences, Pittsburgh, Pa.).
There are several studies showing that various membrane proteins are secreted into the extracellular space through ectodomain shedding or microvesicle release (van Kilsdonk et al., 2010). Here, we examined whether ADAM15 protein is released from human breast cancer MCF-7 cells into conditioned medium. Mature ADAM15 was detected in the conditioned medium by immunoblotting analysis with an antibody against ADAM15 extracellular domain (FIG. 1A). […] In MCF-7 cells, both the pro and mature forms of ADAM15 were detected. […] The mRNA levels of ADAM15 after PMA stimulation were also assessed. […] We further investigated whether released ADAM15 was generated by ectodomain shedding.

[3] = system: THP-1 cells; assay: Release of exosomal ADAM15 from THP-1 cells; settings: THP-1 cells incubated with PMA in serum-free medium for 24 h
Method: (§1) FIG. 9 verifies that the release of exosomal ADAM15 is further induced by LPS stimulation in differentiated THP-1 macrophages. […] THP-1 cells were incubated with PMA in serum-free medium for 24 h. Arrows indicate pro-ADAM15 and mature ADAM15, respectively. Total protein bands of exosomes were shown by Coomassie blue staining (middle penal). In the graph of the right panel, data are represented as the mean±standard deviation of three experiments. […] PMA-differentiated THP-1 cells were washed with PBS and further cultured for 2˜3 days. THP-1 macrophages were incubated with LPS in serum-free medium for 18 h. Exosomes were isolated from conditioned media. Arrows indicate pro-ADAM15 and mature ADAM15, respectively. Total protein bands of exosomes were shown by Coomassie blue staining (middle penal). The right panel represents the mean and standard deviation of three experiments. […] THP-1 cells were treated with or without PMA and/or LPS in serum-free medium for 18 h. […]
(§2) Cells were incubated with or without PMA in serum-free medium or medium containing 5% FBS for 24 h. […] Protein concentration was measured by a modified Bradford assay (Bio-Rad Laboratories, Hercules, Calif.). […] The tubes were then ultracentrifuged at 100,000×g for 2.5 h in a Beckman SW 55 Ti rotor, and fractions with different densities were sequentially collected from the top of the tube and analyzed for exosomes containing ADAM15.

[4] = system: MCF-7 cells; assay: Semi-quantitative RT-PCR analysis of ADAM15 mRNA in MCF-7 cells; settings: 5 ng/Ml PMA for the indicated times
[5] = system: MCF-7 cells; assay: Flow cytometric analysis of cell- and exosomal-surface expression of ADAM15; settings: flow cytometry; 5 ng/Ml PMA for 24 h
Method: FIG. 2 verifies that released ADAM15 is associated with exosomes, and exosome-mediated ADAM15 is secreted by PMA-stimulated PKC activation. […] Conditioned medium of MCF-7 cells treated with or without 5 ng/Ml PMA for 24 h was subjected to sequential centrifugation as follows: 300×g (P1), 1,200×g (P2), 10,000×g (P3), 100,000×g (P4), and 100,000×g after filtering through a 0.22-μm pore size filter (P4′). Pellets from each stage were subjected to western blotting analysis using an anti-ADAM15 cytoplasmic domain antibody. Arrows indicate pro-ADAM15 (P) and mature ADAM15 (M), respectively. […] Isolated microvesicles from conditioned medium of MCF-7 cells treated with 5 ng/Ml PMA were subjected to sucrose gradient centrifugation. Each fraction was concentrated prior to SDS-PAGE. […] After ultracentrifugation at 100,000×g, the pellets were analyzed by immunoblotting with antibody to ADAM15 cytoplasmic domain. […] Isolated exosomes were analyzed by immunoblotting with ADAM15 antibody. […] The percent changes in fluorescence intensity associated with the presence of ADAM15 are shown.
Flow cytometric analysis of exosomes was performed as previously described with minor modifications (Thery et al., 2001). […] Flow cytometry was performed on a FACSCalibur (BD Biosciences), and data were analyzed using WinMDI software version 2.8 (The Scripps Research Institute, La Jolla, Calif.).

[6] = system: MCF-7 cells; assay: Exosome-associated ADAM15 release from MCF-7 cells (sequential centrifugation, immunoblotting); settings: 5 ng/Ml PMA for 24 h; 100,000×g pellet
Method: FIG. 2 verifies that released ADAM15 is associated with exosomes, and exosome-mediated ADAM15 is secreted by PMA-stimulated PKC activation. […] Conditioned medium of MCF-7 cells treated with or without 5 ng/Ml PMA for 24 h was subjected to sequential centrifugation as follows: 300×g (P1), 1,200×g (P2), 10,000×g (P3), 100,000×g (P4), and 100,000×g after filtering through a 0.22-μm pore size filter (P4′). Pellets from each stage were subjected to western blotting analysis using an anti-ADAM15 cytoplasmic domain antibody. Arrows indicate pro-ADAM15 (P) and mature ADAM15 (M), respectively. […] After ultracentrifugation at 100,000×g, the pellets were analyzed by immunoblotting with antibody to ADAM15 cytoplasmic domain. […] Isolated exosomes were analyzed by immunoblotting with ADAM15 antibody. […] The percent changes in fluorescence intensity associated with the presence of ADAM15 are shown.
as §2

[7] = system: HEK293F cells; assay: Exosomal ADAM15 enrichment in transfected HEK293F cells (immunoblotting); settings: 5 ng/Ml PMA for 24 h
Method: FIG. 3 verifies that ADAM15-rich exosomes have a high binding affinity for integrin αvβ3 and prevents interactions between integrin αvβ3 and vitronectin. […] FIGS. 3B and 3C show immunoblotting analysis. Prior to exosome isolation, transfected cells were stimulated with or without 5 ng/Ml PMA for 24 h, and the isolated exosomes were analyzed by immunoblotting analysis with the indicated antibodies. The exosomes were incubated with purified integrin αvβ3 (FIG. 3B) or α5β1 (FIG. 3C), followed by ultracentrifugation. The precipitates were analyzed by immunoblotting analysis. In the graphs, the immunoblotting results are represented by the relative intensity. […] Exosomes were incubated with purified integrin αvβ3 on a vitronectin-coated plate, and bound integrins were detected by anti-integrin αvβ3 antibody. […] After 2-h incubation, the number of bound cells was determined by MTT assay (OD: 540 nm). […]
as §2

[8] = system: THP-1 macrophages; assay: Release of exosomal ADAM15 from differentiated THP-1 macrophages; settings: THP-1 macrophages incubated with LPS in serum-free medium for 18 h
Method: as §1, §2

## calphostin C
[1]
  PMA-stimulated ADAM15 release: successfully blocked

## CCCCCCCCCCCCCC(=O)O[C@@H]1[C@@H](C)[C@@]2(O)[C@@H](C=C(CO)C[C@]3(O)C(=O)C(C)=C[C@@H]23)[C@@H]2C(C)(C)[C@]12OC(C)=O [PMA, phorbol 12-myristate 13-acetate]
[2]; 5 ng/Ml PMA, serum-free RPMI 1640, antibody against ADAM15 extracellular domain
  ADAM15 release into conditioned medium: largely increased
[2]; cell lysates after PMA stimulation
  other membrane proteins ADAM10 and E-cadherin in cells: unchanged
[2]; cell lysates, time after PMA stimulation, barely detectable after 24 hrs
  pro and mature forms of ADAM15 in cells: decreased with time
[3]
  release of exosomal ADAM15: effectively increased
[4]
  ADAM15 mRNA levels: unchanged
[5]
  exosomal-surface ADAM15: increase
  plasma membrane-associated ADAM15: decrease
[6]
  amount of exosomal ADAM15: increased
[7]
  exosomal ADAM15 in exosomes of ADAM15-transfected cells: further exosomal enrichment

## lipopolysaccharide [LPS]
[8]
  release of exosomal ADAM15: enhanced
